In patent US20250195645A1, “COMBINATION OF MULTISPECIFIC MOLECULE AND IMMUNE CHECKPOINT INHIBITOR” (DAIICHI SANKYO COMPANY, LIMITED, priority 2022, published 2025):

How the values were obtained:
[1] = test system: human esophageal cancer cell line OE-19; experiment: In vivo combinatorial effect of NYZ-1010 and sacituzumab govitecan-hziy, human T cell transfer model; settings: NSG mice
Experimental: The administration was carried out on Day 7 (NYZ-1010) or on days 6 and 13 (sacituzumab govitecan-hziy). Tumor growth inhibition (%) and change from baseline (%) were calculated according to the expressions given below.

[2] = test system: human lung adenocarcinoma cell line NCI-H522; experiment: In vivo combinatorial effect of NYZ-1010 and durvalumab, human T cell transfer model; settings: NSG mice
[3] = test system: human synovial sarcoma cell line SW982; experiment: In vivo combinatorial effect of NYZ-1010 and doxorubicin, human T cell transfer model; settings: NSG mice
Experimental: The administration was carried out on Day 41 (NYZ-1010) or on Days 40 and 47 (doxorubicin). Tumor growth inhibition (%) and change from baseline (%) were calculated according to the expressions given below.

[4] = test system: human lung adenocarcinoma cell line NCI-H522; experiment: In vivo combinatorial effect of NYZ-1010 and pembrolizumab, human T cell transfer model; settings: 53 days after tumor inoculation; NSG mice; NYZ-1010 0.01 mg/kg Days 25, 32, 39; pembrolizumab 10 mg/kg Days 28, 32, 35, 39, 42
Experimental: Tumor growth inhibition (%) was calculated according to the following equation.

sacituzumab govitecan-hziy
TGI (tumor growth inhibition) ([1]; 21 days after inoculation, NYZ-1010 0.01 mg/kg Day 7, sacituzumab govitecan-hziy 25 mg/kg days 6 and 13): 35.4%
Change from baseline (%) ([1]; group average, tumor volume on Day 21 vs Day 6 baseline): 1027.8 (n = 5) %

durvalumab: anti-PD-L1 antibody
TGI (tumor growth inhibition) ([2]; 49 days after inoculation, NYZ-1010 0.02 mg/kg Days 25 and 32, durvalumab 10 mg/kg intraperitoneally Days 28, 32, 35, 39): −0.8%
Change from baseline (%) ([2]; group average, tumor volume on Day 49 vs Day 24 baseline): 204.7 (n = 5) %

COc1cccc2c1C(=O)c1c(O)c3c(c(O)c1C2=O)C[C@@](O)(C(=O)CO)C[C@@H]3O[C@H]1C[C@H](N)[C@H](O)[C@H](C)O1 [doxorubicin]
TGI (tumor growth inhibition) ([3]; 55 days after inoculation, NYZ-1010 0.01 mg/kg Day 41, doxorubicin 2.5 mg/kg Days 40 and 47): 25.6%
Change from baseline (%) ([3]; group average, tumor volume on Day 55 vs Day 40 baseline): 214.1 (n = 5) %

pembrolizumab: anti-PD-1 antibody
TGI (tumor growth inhibition) [4]: 3.1%
